Patent publication US4966900A, “Cephalosporin β-lactam compound and medicinal composition” (priority 1986, dated 1990)
Values after ≈ are worked out from the molar mass of the structure shown. Structures can show the parent of a compound that is named as a salt.

How the values were obtained:
Assay in all cases: MIC
[1] = test system: P. vulgaris GN7919
[2] = test system: E. colacae GN7471
[3] = test system: E. coli GN5482
[4] = test system: C. freundii GN7391
[5] = test system: K. pneumoniae 4at521
[6] = test system: P. aeruginosa 4au542
[7] = test system: P. aeruginosa GN10362; settings: Pseudomonas aeruginosa, GN10362
[8] = test system: E. cloacae 908RN; settings: Enterobacter cloacae
[9] = test system: S. marcescens GN10857
[10] = test system: P. cepacia OF189
[11] = test system: P. maltophilia OF247; settings: Stenotrophomonas maltophilia
[12] = test system: E. coli ML4707
[13] = test system: S. aureus Smith
[14] = test system: S. aureus IAA498; assay type: cell-based; settings: Staphylococcus aureus
Description: (§1) The minimum inhibition concentrations (MIC) of the compounds obtained in the respective examples described above were measured according to the standard method of Japanese Chemotherapy Association.

[15] = test system: P. aeruginosa 5D58-1
[16] = test system: E. cloacae 1V25; settings: Enterobacter cloacae
[17] = test system: C. freundii 1R524; settings: Citrobacter freundii, 1R524
[18] = test system: C. freundii 1R526; settings: Citrobacter freundii, 1R526
[19] = test system: C. freundii 5D60-1
[20] = test system: C. freundii 1R527; settings: Citrobacter freundii, 1R527
[21] = test system: C. freundii 1R523; settings: Citrobacter freundii, 1R523
[22] = test system: E. cloacae 5D63-2; settings: Enterobacter cloacae, 5D632
[23] = test system: C. freundii 1U692
[24] = test system: E. cloacae 5D52-2; settings: Enterobacter cloacae, 5D522
[25] = test system: E. cloacae 1Y247; assay type: cell-based; settings: Enterobacter cloacae, Table 6, read-out: MIC
Description: as §1

[26] = test system: C. freundii 1U589
[27] = Escherichia coli, GN5482, E. coli GN5482, Table 5
[28] = Citrobacter freundii, GN7391, C. freundii GN7391, Table 5
[29] = Pseudomonas aeruginosa, 4AU542, P. aeruginosa 4au542, Table 5
[30] = Serratia marcescens, GN10857, S. marcescens GN10857, Table 5
[31] = Burkholderia cepacia, OF189, P. cepacia OF189, Table 5
[32] = Escherichia coli, ML4707, E. coli ML4707, Table 5
[33] = Pseudomonas aeruginosa, 5D581, P. aeruginosa 5D58-1, Table 5

Compound: Cc1cc(SCC2=C(C(=O)O)N3C(=O)C(NC(=O)C(=NOC(C)(C)C(=O)NNC(=O)c4ccc(O)c(O)c4)c4csc(N)n4)[C@H]3SC2)n2nc(C(F)(F)F)nc2n1 (stereo partly shown) [Example 55, 7-{2-[2-Amino-1,3-thiazol-4-yl]-2-[1-(3-(3,4-dihydroxybenzoyl)carbazoyl)-1-methylethoxyimino]acetamido}-3-[(5-methyl-2-trifluoromethyl-s-triazolo[1,5-a]pyrimidin-7-yl)-thiomethyl]-3-cephem-4-carboxylic acid]
- MIC ([1]; Proteus vulgaris, GN7919): 1.56 µg/mL (≈ 1.83 µM)
- MIC ([2]; Table 7): 25 µg/mL (≈ 29.3 µM)
- MIC ([3]; Escherichia coli, GN5482, E. coli GN5482, Table 7): 0.025 µg/mL (≈ 0.0293 µM)
- MIC ([4]; Citrobacter freundii, GN7391, C. freundii GN7391, Table 7): 6.25 µg/mL (≈ 7.34 µM)
- MIC ([5]; Klebsiella pneumoniae, 4AT521): 0.025 µg/mL (≈ 0.0293 µM)
- MIC ([6]; Pseudomonas aeruginosa, 4AU542, P. aeruginosa 4au542, Table 7): 0.39 µg/mL (≈ 0.458 µM)
- MIC [7]: 0.39 µg/mL (≈ 0.458 µM)
- MIC ([8]; E. colacae 908RN, Table 7): 12.5 µg/mL (≈ 14.7 µM)
- MIC ([9]; Serratia marcescens, GN10857, S. marcescens GN10857, Table 7): 1.56 µg/mL (≈ 1.83 µM)
- MIC ([10]; Burkholderia cepacia, OF189, P. cepacia OF189, Table 7): 0.05 µg/mL (≈ 0.0587 µM)
- MIC ([11]; Table 7): 1.56 µg/mL (≈ 1.83 µM)
- MIC ([12]; Escherichia coli, ML4707, E. coli ML4707, Table 7): 0.05 µg/mL (≈ 0.0587 µM)
- MIC ([13]; Staphylococcus aureus, Table 7): 6.25 µg/mL (≈ 7.34 µM)
- MIC ([14]; Table 7): 6.25 µg/mL (≈ 7.34 µM)
- MIC ([15]; Pseudomonas aeruginosa, 5D581, P. aeruginosa 5D58-1, Table 7): 0.39 µg/mL (≈ 0.458 µM)

Compound: Cc1cc(SCC2=C(C(=O)O)N3C(=O)C(NC(=O)C(=NOC(C)(C)C(=O)NNC(=O)c4ccc(O)c(O)c4)c4csc(N)n4)C3SC2)n2nnnc2n1 (stereo not shown) [Example 29, 7-{2-[2-amino-1,3-thiazol-4-yl]-2-[1-(3-(3,4-dihydroxybenzoyl)carbazoyl)-1-methylethoxyimino]acetamide}-3-[(5-methyltetrazolo[1,5-a]pyrimidin-7-yl)thiomethyl]-3-cephem-4-carboxylic acid.hydrochloride]
- MIC ([1]; Proteus vulgaris, GN7919): 6.25 µg/mL
- MIC [16]: 3.13 µg/mL
- MIC [17]: 0.78 µg/mL
- MIC [18]: 0.2 µg/mL
- MIC ([2]; Table 5): 1.56 µg/mL
- MIC [3, 27]: 0.025 µg/mL
- MIC ([19]; Citrobacter freundii, 5D601): 0.39 µg/mL
- MIC [4, 28]: 6.25 µg/mL
- MIC ([4]; Citrobacter freundii, GN7391, C. freundii GN7391, Table 6): 0.012 µg/mL
- MIC ([5]; Klebsiella pneumoniae, 4AT521): 0.012 µg/mL
- MIC [20]: 0.78 µg/mL
- MIC [21]: 0.2 µg/mL
- MIC [6, 29]: 0.78 µg/mL
- MIC [7]: 0.39 µg/mL
- MIC ([8]; E. cloacae 908RN, Table 6): 3.13 µg/mL
- MIC ([8]; E. colacae 908RN, Table 5): 6.25 µg/mL
- MIC [9, 30]: 0.39 µg/mL
- MIC [10, 31]: < 0.006 µg/mL
- MIC ([11]; Table 5): 0.2 µg/mL
- MIC [12, 32]: < 0.006 µg/mL
- MIC ([13]; Staphylococcus aureus, Table 5): 1.56 µg/mL
- MIC [22]: 0.78 µg/mL
- MIC ([23]; Citrobacter freundii, 1U692): 12.5 µg/mL
- MIC [24]: 0.78 µg/mL
- MIC [25]: 0.78 µg/mL
- MIC ([14]; Table 5): 3.13 µg/mL
- MIC ([26]; Citrobacter freundii, 1U589): 0.78 µg/mL
- MIC [15, 33]: 0.39 µg/mL

Compound: cephazoline [CAZ, reference compound]
- MIC ([1]; P. vulgaris Gn7919, Table 5): 1.56 µg/mL
- MIC ([2]; Table 5): 3.13 µg/mL
- MIC ([3]; E. coli GN5482, Table 5): 0.78 µg/mL
- MIC ([19]; C. freundii 5D60-1, Table 6): > 100 µg/mL
- MIC ([19]; C. freundii 5D60-1, Table 8): > 100 µg/mL
- MIC ([4]; C. freundii GN7391, Table 5): > 100.00 µg/mL
- MIC ([4]; C. freundii GN7391, Table 6): > 100 µg/mL
- MIC ([5]; K. pneumoniae 4at521, Table 5): 0.10 µg/mL
- MIC ([6]; P. aeruginosa 4au542, Table 5): 1.56 µg/mL
- MIC ([9]; S. marcescens GN10857, Table 5): 1.56 µg/mL
- MIC ([10]; P. cepacia OF189, Table 5): 3.13 µg/mL
- MIC ([12]; E. coli ML4707, Table 5): 0.05 µg/mL
- MIC ([13]; Table 5): 6.25 µg/mL
- MIC ([23]; C. freundii 1U692, Table 6): 100 µg/mL
- MIC ([23]; C. freundii 1U692, Table 8): 50.000 µg/mL
- MIC ([26]; C. freundii 1U589, Table 6): 100 µg/mL
- MIC ([26]; C. freundii 1U589, Table 8): 100 µg/mL
- MIC ([15]; P. aeruginosa 5D58-1, Table 5): 0.78 µg/mL

Compound: CC(C)(ON=C(C(=O)NC1C(=O)N2C(C(=O)O)=C(CSc3ccnc4ncnn34)CSC12)c1csc(N)n1)C(=O)NNC(=O)c1ccc(O)c(O)c1 (stereo not shown) [Example 38, 7-{2-[2-Amino-1,3-thiazol-4-yl]-2-[1-(3-(3,4-dihydroxybenzoyl)carbazoyl)-1-methylethoxyimino]acetamide}-3-[(s-triazolo[1,5-a]pyrimidin-7-yl)thiomethyl]-3-cephem-4-carboxylic acid.hydrochloride]
- MIC ([1]; Proteus vulgaris, GN7919): 1.56 µg/mL
- MIC ([2]; Table 5): 3.13 µg/mL
- MIC [3, 27]: 0.025 µg/mL
- MIC [4, 28]: 25 µg/mL
- MIC ([5]; Klebsiella pneumoniae, 4AT521): 0.012 µg/mL
- MIC [6, 29]: 0.1 µg/mL
- MIC [7]: 0.1 µg/mL
- MIC ([8]; E. colacae 908RN, Table 5): 25 µg/mL
- MIC [9, 30]: 0.39 µg/mL
- MIC [10, 31]: 0.025 µg/mL
- MIC ([11]; Table 5): 0.78 µg/mL
- MIC [12, 32]: 0.012 µg/mL
- MIC ([13]; Staphylococcus aureus, Table 5): 1.56 µg/mL
- MIC ([14]; Table 5): 3.13 µg/mL
- MIC [15, 33]: 0.39 µg/mL
